“Also recorded” adds a separate entry of the source. Non-standard residues stand in square brackets, D forms with d. Residues, ends and D or L forms follow the SMILES beside them. *: point of attachment. Biotin = O=C1N[C@H]2[C@H](CS[C@H]2CCCCC(=O)*)N1; Benzoyl(4-SO2F) = O=C(c1ccc(S(=O)(=O)F)cc1)*; pY = N[C@@H](Cc1ccc(OP(=O)(O)O)cc1)C(=O)O; Dap = NC[C@H](N)C(=O)O
Tests used:
[1] = tested on: Nck in Caco-2 cells; experiment: In cell reaction of p1 with endogenous Nck (Western blot); assay type: cell-based; conditions: L17E and p1 (printed 40 mM and 10 mM) overnight; anti-Nck Western blot
Protocol: Caco-2 cells were seeded in a 24-well plate at a density of 1×10^4 cells for 24 h and pretreated with peptide complexes for 2 h. After washing with DMEM, cells were infected with EPEC at selected MOI values for 3 h at 37 ℃. Cells were then treated with gentamicin ([…]) for 2 h and lysed with 1% Triton X-100 for 15 min. The lysates were diluted 100 or 1000 folds to be spread on LB agar plates […]
Immunofluorescence Confocal Microscopy
Infected cells were fixed with 4% PFA and treated with 0.1% Triton X-100 for 10 min. And then the samples were blocked with 3% BSA for 1 h, incubated with anti-Tir antibody (Abbexa, C ambridge, UK) at 1:200 at 4℃ over night and followed by incubation with Alexa Fluo 488 goat anti -rabbit IgG secondary antibody at room temperature for 2 h. Cells were treated with DAPI (Invitrogen) for 10 min, then stained with phalloidin (Alexa Fluor 594 -conjugated phalloidin, Invitrogen) for 1 h and imaged by a confocal fluorescent microscope (SP8, Leica).
Caco -2 cells were treated with peptides overnight and lysed via RIPA buffer containing protease inhibitors for 15 min at 4℃. […]
SPSS 23.0 statistical software was used to process experimental data. The differences between mean ± SEM of three independent experiments were assessed by Student's t -test. […]

[2] = molecular target: T1, Nck/N-WASP/3pY (Homo sapiens, UniProt P16333); experiment: Turbidity assay of Nck/N-WASP/3pY solution; assay type: biochemical; conditions: Nck droplets; text cites Figures S12 and S13
T1 construct: GST (followed by PreScission/HRV 3C site) (N, cleaved yes); made in house; host or cells: E. coli BL21(DE3)
Protocol: (§1) Next, we explored the intervention of Nck/N-WASP/3pY LLPS using pY peptides (Figure 3a). Three pY-containing peptides extracted from different Tir sequences were synthesized, namely, peptides Y474, Y751, and Y147 (Figure 3b).
Figure 3 pY peptides disrupt Nck/N-WASP/3pY LLPS. (a) Sequences of synthetic pY peptides. […] Nck: 20 μM; N-WASP: 10 μM; 3pY: 10 μM. Scale bars, 20 μm. (c) Peptide Y474 rapidly decreases the turbidity of the Nck/N-WASP/3pY solution in around 20 min. Nck: 20 μM, N-WASP: 10 μM, 3pY: 10 μM. […] Nck: 20 μM, N-WASP: 10 μM, 3pY: 10 μM.
(Cytiva, Hong Kong) using a gradient from 100 to 500 mM NaCl and Superdex 75 10/300 GL column (Cytiva, Hong Kong) in 25 mM HEPES, 150 mM NaCl, and 2 mM βME at pH 7.5.
Proteins were buffer-exchanged through a Hi-trap desalting column (Cytiva, Hong Kong) to the reaction buffer. For Cy5 labeling, the buffer was 0.1 M sodium bicarbonate buffer at pH 8.3. For FITC labeling, the buffer was 50 mM sodium borate at pH 8.5. […]
Fluorescence Recovery after Photobleaching (FRAP) Assay
Fluorescence recovery in vitro was conducted with a DMi8 microscope (Leica, Germany). […]
The fluorescence intensity was quantified and normalized by ImageJ.
Fluorescence recovery after photobleaching experiments inside mammalian cells was conducted with a two-photon imaging system using a custom-built upright microscope, based on a previously used imaging setup. […]

[3] = molecular target: T1, Nck/N-WASP/3pY; experiment: Disruption of Nck/N-WASP/3pY droplets by pY peptides (microscopy); assay type: biochemical; conditions: peptide 12.5, 25, 50, 100 µM; 0, 10, 30 min; Nck 80 μM, N-WASP 15 μM, 3pY 10 μM; confocal
Protocol: as §1
Figure 3 pY peptides disrupt Nck/N-WASP/3pY LLPS. (a) Sequences of synthetic pY peptides. […] Nck: 20 μM; N-WASP: 10 μM; 3pY: 10 μM. Scale bars, 20 μm. (c) Peptide Y474 rapidly decreases the turbidity of the Nck/N-WASP/3pY solution in around 20 min. Nck: 20 μM, N-WASP: 10 μM, 3pY: 10 μM. […] Nck: 20 μM, N-WASP: 10 μM, 3pY: 10 μM. […]
peptide 0 min 10 min 30 min
Peptides p1 with different concentrations were added to decrease the droplet formation of the Nck/N-WASP/3pY solution and droplet disassembles were observed under confocal microscopy at different times (0 min, 10 min and 30 min). Nck: 80 μM, N-WASP: 15 μM, 3pY: 10 μM. […]
Figure S13. […] Peptides Y474 with […]
different concentrations were added to decrease the droplet formation of the Nck/N-WASP/3pY solution and droplet disassembles were observed under confocal microscopy at different times (0 min, 10 min and 30 min). Nck: 80 μM, N-WASP: 15 μM, 3pY: 10 μM.

With `CC[C@H](C)[C@H](NC(=O)[C@H](Cc1c[nH]cn1)NC(=O)[C@H](CCC(=O)O)NC(=O)[C@H](CCC(=O)O)NC(=O)CCCC[C@@H]1SC[C@@H]2NC(=O)N[C@@H]21)C(=O)N[C@@H](Cc1ccc(OP(=O)(O)O)cc1)C(=O)N[C@@H](CNC(=O)c1ccc(S(=O)(=O)F)cc1)C(=O)N[C@@H](CCC(=O)O)C(=O)N[C@H](C(=O)N[C@@H](C)C(=O)N[C@@H](C)C(=O)N[C@@H](CC(=O)O)C(N)=O)C(C)C` [p1] (Biotin-EEHI[pY][Dap](Benzoyl(4-SO2F))EVAAD-NH2; N-terminus and C-terminus assumed) the “reaction with endogenous Nck in cytosol” value [1] was “reacted with the endogenous Nck in the cytosol of Caco-2 cells”, the “reduction of solution turbidity, p1 and Y474 compared” value [2] was “reduce the turbidity of the solution” and the “reversal of Nck/N-WASP/3pY phase separation (droplet disassembly)” value [3] was “reverses the phase separation; also recorded: disintegrate phase-separated Nck droplets”.

Reference: publication PMC10755736, “Modulating Liquid–Liquid Phase Separation of Nck Adaptor Protein against Enteropathogenic Escherichia coli Infection” (ACS Central Science, 2023)
